This is an account of results in ChEMBL document CHEMBL1130839, “Synthesis and pharmacological activities of 13-dehydro derivatives of primary prostaglandins” (Bioorg Med Chem Lett, 1998).

What all share (type): functional
The species named for test [1] is Cavia porcellus. The test can be described thus: Compound was tested for contraction of guinea-pig ileum. The following applies: read-out: ED50 (the source's name).
The species entered for test [2] is Cavia porcellus. The test can be described thus: Compound was tested for […] PGE2-induced relaxation of guinea-pig trachea precontracted with carbachol.
The species named for test [3] is Homo sapiens. The experiment in a line: Compound was tested for inhibition of ADP-induced human platelet aggregation.
For test [4], the species on record is Rattus norvegicus. The test can be described thus: Compound was tested for contraction of rat isolated uterine. The following applies: read-out: ED50 (the source's name).
The species entered for test [5] is Cavia porcellus. The test can be described thus: Compound was tested for relaxation of guinea-pig trachea precontracted with histamine.
The species entered for test [6] is Cavia porcellus. The test can be described thus: Compound was tested for relaxation of guinea-pig trachea precontracted in histamine.

With `CCCCC[C@H](O)C#C[C@H]1[C@H](O)CC(=O)[C@@H]1C/C=C\CCCC(=O)O`, the EC50 in test [1] came out at 0.18 nM. In addition, the values for the IC50 in test [2] and in test [3] were 2.6 nM and 3.4 nM, respectively.
Take `CCCCC[C@H](O)C#C[C@@H]1[C@@H](CCCCCCC(=O)O)[C@@H](O)C[C@H]1O`: the values for the EC50 in test [1] and in test [4] were 20 nM and 1000 nM, respectively.
With `CCCCC[C@H](O)C#C[C@H]1[C@H](O)CC(=O)[C@@H]1CCCCCCC(=O)O`, the EC50 in test [1] stood at 0.23 nM. The IC50 in test [5] was found to be 8900 nM; in test [3] it was 3000 nM.
Regarding `CC/C=C\C[C@H](O)C#C[C@H]1[C@H](O)CC(=O)[C@@H]1C/C=C\CCCC(=O)O`, the EC50 in test [1] was found to be 260 nM. In addition, the values for the IC50 in test [6] and in test [3] were 5400 nM and 2600 nM, respectively.
